Assay results from US10246401B2, “Crystalline form of chlorogenic acid and preparation method thereof” (SICHUAN JIUZHANG BIOLOGICAL SCIENCE AND TECHNOLOGY CO., LTD., priority 2014, dated 2019).
“And” between values parts separate entries of the source, which are not always exact repeats. Equal values may be shown once.

Assays:
[1] = Residual solvent by gas chromatography (internal standard method); format: physicochemical; settings: Chinese Pharmacopoeia limit 0.5%
Protocol: […]; an appropriate amount of ethyl acetate was taken, weighed precisely, and N,N-dimethylformamide was added to prepare the solution containing 5 mg of ethyl acetate per 1 ml. 1 ml of the solution was accurately pipetted into a 10 ml volumetric flask, and 1 ml of the internal standard solution was precisely added, and diluted by adding N,N-dimethylformamide to the volume, and agitated to obtain the reference solution; 0.5 g of the chlorogenic acid crystal form prepared by Examples 1 and 2, and about 0.5 g of respective raw materials of each example, were taken and weighed precisely, then transferred to a 10 ml volumetric flask. 1 ml of the internal standard solution was added precisely, diluted with N,N-dimethylformamide to volume, and agitated, to obtain the testing solution. According to the gas chromatography method (the appendix V E of the second part of the Chinese Pharmacopoeia 2010), 30 m capillary column was used with 50% polyphenyl methylsiloxane as the stationary liquid, and its coating thickness was 1 μm. The column temperature was kept at 80° C. taking 1 μl of the reference solution and 1 μl of the testing solution were accurately taken, respectively, and injected into the gas chromatograph, to record the chromatogram. Calculating with the height ratio of peaks in accordance with internal standard method, the results are as follows: […]

[2] = Long-term stability test of chlorogenic acid crystal form; format: physicochemical
[3] = 0-48 months, 18±2° C., relative humidity 60±10%
[4] = 0 month, 18±2° C., relative humidity 60±10%
[5] = 3 months, 18±2° C., relative humidity 60±10%
[6] = 6 months, 18±2° C., relative humidity 60±10%
[7] = 9 months, 18±2° C., relative humidity 60±10%
[8] = 12 months, 18±2° C., relative humidity 60±10%
[9] = 18 months, 18±2° C., relative humidity 60±10%
[10] = 24 months, 18±2° C., relative humidity 60±10%
[11] = 36 months, 18±2° C., relative humidity 60±10%
[12] = 48 months, 18±2° C., relative humidity 60±10%

Compound: O=C(/C=C/c1ccc(O)c(O)c1)O[C@@H]1C[C@](O)(C(=O)O)C[C@@H](O)[C@H]1O [Sample obtained in Example 2, 3-O-caffeoylquinnic acid]
- Residual solvent Ethyl acetate (%) [1]: 0.252%

Compound: O=C(/C=C/c1ccc(O)c(O)c1)O[C@@H]1C[C@](O)(C(=O)O)C[C@@H](O)[C@H]1O [Raw material of Example 1, 3-O-caffeoylquinnic acid]
- Residual solvent Ethyl acetate (%) [1]: 1.764%

Compound: O=C(/C=C/c1ccc(O)c(O)c1)O[C@@H]1C[C@](O)(C(=O)O)C[C@@H](O)[C@H]1O [Example 1, 3-O-caffeoylquinnic acid]
- Residual solvent Ethyl acetate (%) ([1]; listed as Sample obtained in Example 1): 0.254%
- Content of chlorogenic acid over the long-term stability test [2, 3]: above 98%
- Stability (overall conclusion of long-term test) [2, 3]: good stability
- Appearance [2, 4]: almost white
- Content (%) [2, 4]: 99.50% and 99.56% and 99.49%
- Loss on drying (%) [2, 4]: 2.32% and 2.31% and 2.29%
- Related substances (%) Other 2 [2, 4]: 0.140% and 0.137% and 0.144%
- Related substances (%) Other 3 [2, 4]: 0.205% and 0.214% and 0.218%
- Related substances (%) Other 4 [2, 4]: 0.045% and 0.049% and 0.048%
- Related substances In total (%) [2, 4]: 0.488% and 0.499% and 0.511%
- Appearance [2, 5]: almost white
- Content (%) [2, 5]: 99.47% and 99.41% and 99.43%
- Loss on drying (%) [2, 5]: 2.30% and 2.31% and 2.29%
- Related substances (%) Other 2 [2, 5]: 0.142% and 0.151% and 0.148%
- Related substances (%) Other 3 [2, 5]: 0.230% and 0.237% and 0.228%
- Related substances (%) Other 4 [2, 5]: 0.049% and 0.050% and 0.046%
- Related substances In total (%) [2, 5]: 0.523% and 0.543% and 0.525%
- Appearance [2, 6]: almost white
- Content (%) [2, 6]: 99.44% and 99.38% and 99.42%
- Loss on drying (%) [2, 6]: 2.31% and 2.29% and 2.28%
- Related substances (%) Other 2 [2, 6]: 0.146% and 0.154% and 0.155%
- Related substances (%) Other 3 [2, 6]: 0.234% and 0.240% and 0.231%
- Related substances (%) Other 4 [2, 6]: 0.054% and 0.056% and 0.053%
- Related substances In total (%) [2, 6]: 0.541% and 0.563% and 0.548%
- Appearance [2, 7]: almost white
- Content (%) [2, 7]: 99.38% and 99.30% and 99.33%
- Loss on drying (%) [2, 7]: 2.32% and 2.31%
- Related substances (%) Other 2 [2, 7]: 0.162% and 0.167% and 0.165%
- Related substances (%) Other 3 [2, 7]: 0.255% and 0.261% and 0.252%
- Related substances (%) Other 4 [2, 7]: 0.058% and 0.061% and 0.060%
- Related substances In total (%) [2, 7]: 0.591% and 0.611% and 0.595%
- Appearance [2, 8]: almost white
- Content (%) [2, 8]: 99.32% and 99.27% and 99.23%
- Loss on drying (%) [2, 8]: 2.28% and 2.31% and 2.29%
- Related substances (%) Other 2 [2, 8]: 0.163% and 0.168% and 0.169%
- Related substances (%) Other 3 [2, 8]: 0.260% and 0.264% and 0.265%
- Related substances (%) Other 4 [2, 8]: 0.062% and 0.063%
- Related substances In total (%) [2, 8]: 0.606% and 0.623% and 0.627%
- Appearance [2, 9]: almost white
- Content (%) [2, 9]: 99.18% and 99.26% and 99.24%
- Loss on drying (%) [2, 9]: 2.30% and 2.29% and 2.28%
- Related substances (%) Other 2 [2, 9]: 0.179% and 0.174%
- Related substances (%) Other 3 [2, 9]: 0.279% and 0.270% and 0.272%
- Related substances (%) Other 4 [2, 9]: 0.065% and 0.067%
- Related substances In total (%) [2, 9]: 0.660% and 0.643% and 0.647%
- Appearance [2, 10]: almost white
- Content (%) [2, 10]: 99.17% and 99.10% and 99.14%
- Loss on drying (%) [2, 10]: 2.32% and 2.30% and 2.31%
- Related substances (%) Other 2 [2, 10]: 0.178% and 0.187% and 0.185%
- Related substances (%) Other 3 [2, 10]: 0.278% and 0.292% and 0.286%
- Related substances (%) Other 4 [2, 10]: 0.070% and 0.074% and 0.072%
- Related substances In total (%) [2, 10]: 0.666% and 0.697% and 0.685%
- Appearance [2, 11]: almost white
- Content (%) [2, 11]: 99.13% and 99.05% and 99.02%
- Loss on drying (%) [2, 11]: 2.32% and 2.31%
- Related substances (%) Other 2 [2, 11]: 0.190% and 0.194% and 0.196%
- Related substances (%) Other 3 [2, 11]: 0.299% and 0.301% and 0.302%
- Related substances (%) Other 4 [2, 11]: 0.076% and 0.074% and 0.078%
- Related substances In total (%) [2, 11]: 0.713% and 0.719% and 0.732%
- Appearance [2, 12]: almost white
- Content (%) [2, 12]: 98.85% and 98.74% and 98.80%
- Loss on drying (%) [2, 12]: 2.34% and 2.38% and 2.36%
- Related substances (%) Other 2 [2, 12]: 0.219% and 0.222% and 0.218%
- Related substances (%) Other 3 [2, 12]: 0.303% and 0.309% and 0.306%
- Related substances (%) Other 4 [2, 12]: 0.092% and 0.095% and 0.091%
- Related substances In total (%) [2, 12]: 0.770% and 0.787% and 0.772%
- Crystal form examination by microscope ([2]; at the end of 12, 24, 36 and 48 months, 18±2° C., relative humidity 60±10%): single lamellar crystal
- Stability on storage ([2]; within 48 months, stored in the cool and dark place): does not change obviously

Compound: O=C(/C=C/c1ccc(O)c(O)c1)O[C@@H]1C[C@](O)(C(=O)O)C[C@@H](O)[C@H]1O [Raw material of Example 2, 3-O-caffeoylquinnic acid]
- Residual solvent Ethyl acetate (%) [1]: 2.314%
